# Experimental data published in patent publication US8314094B2, “Benzoxazinone derivative” (MSD K.K, priority 2007, dated 2012).
# Target: T1, human LCE (Homo sapiens, UniProt Q9H5J4)
# T1 sequence (Q9H5J4 1-265): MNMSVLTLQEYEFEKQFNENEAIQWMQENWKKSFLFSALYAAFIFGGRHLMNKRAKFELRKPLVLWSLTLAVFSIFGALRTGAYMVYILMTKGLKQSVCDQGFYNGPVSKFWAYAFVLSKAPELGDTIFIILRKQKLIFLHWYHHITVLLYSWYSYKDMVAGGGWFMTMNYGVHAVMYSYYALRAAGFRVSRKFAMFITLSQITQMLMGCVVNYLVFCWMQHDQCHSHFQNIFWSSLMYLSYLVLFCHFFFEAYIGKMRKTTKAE
# Test: LCE enzymatic activity inhibition test
# Format: biochemical
# Conditions: human LCE enzyme, palmitoyl-CoA and [14C]-malonyl-CoA as substrates, pH 6.5, 37° C. for 90 minutes
# Method: An LCE enzymatic activity inhibition test was carried out by a modified method of Moon (J. Biol. Chem., Vol. 276, pp. 45358-45366, (2001)) et al. That is, the diluted test compound was added to a 96-well assay plate (Corning, 96-Well Assay Block) in an amount of 1.0 μL per well, and thereafter, 50 μL of a phosphate buffer solution (a 100 mM potassium phosphate buffer solution (pH 6.5)), 25 μL of a substrate solution (a 100 mM potassium phosphate buffer solution (pH 6.5), 4.0 μM rotenone, 80 μM fatty acid-free bovine serum albumin, 160 μM palmitoyl-CoA, 80 μM malonyl-CoA, 3.5 μM [^14C]-malonyl-CoA (1.92 GBq/mmol, manufactured by Amersham, Inc.)) was added to each well, and further, 25 μL of an enzyme solution (a 100 mM potassium phosphate buffer solution (pH 6.5), 100 μg/mL human LCE) was added thereto. Then, the upper part of the plate was hermetically closed with a seal member, and the plate was incubated at 37° C. for 90 minutes while gently shaking and stirring. Thereafter, to each well, 100 μL of 5 N HCl was added and the assay plate was stirred at room temperature for 5 minutes, whereby the enzymatic reaction was stopped and also acyl-CoA was hydrolyzed. Thereafter, the enzymatic reaction solution in each well was adsorbed to each well of a 96-well GF/C filter plate (PerkinElmer, Unifilter 96GF/C) through which water had been passed in advance, and then, each well was washed with water to remove unadsorbed malonyl-CoA and the GF/C filter plate was dried at 50° C. for 60 minutes. Thereafter, to each well, 30 μL of a scintillator (PerkinElmer, Microscinti 0) was added and the upper part of the plate was sealed, and the radioactivity of the fixed [^14C] was measured using a microplate scintillation counter (PerkinElmer, Top Count) from which the enzymatic activity was determined The human LCE enzyme inhibitory activity of the test compound was calculated using the radioactivity obtained from a well to which DMSO containing no test compound is added as a control.
row,Structure (SMILES),IC50 [nM]
1,"O=C1Nc2ccc(Cl)cc2C(CCCNC(=O)c2ccc(F)cc2)(C(F)(F)F)O1 (single isomer, unassigned) [Example 33, N-{3-[(4R*)-6-chloro-2-oxo-4-(trifluoromethyl)-1,4-dihydro-2H-3,1-benzoxazin-4-yl]propyl}-4-fluorobenzamide]",17
2,"Cn1cc(-c2ccc3c(c2)C(CNC(=O)c2ccc(F)cc2)(C(F)(F)F)OC(=O)N3)cn1 (single isomer, unassigned) [Example 133, (4S*)-4-fluoro-N-{[6-(1-methyl-1H-pyrazol-4-yl)-2-oxo-4-(trifluoromethyl)-1,4-dihydro-2H-3,1-benzoxazin-4-yl]methyl}benzamide]",119
3,"O=C1Nc2ccc(-c3cc[nH]n3)cc2C(CNS(=O)(=O)c2ccccn2)(C(F)(F)F)O1 (single isomer, unassigned) [Example 151, N-{[(4S*)-2-oxo-6-(1H-pyrazol-3-yl)-4-(trifluoromethyl)-1,4-dihydro-2H-3,1-benzoxazin-4-yl]methyl}pyridine-2-sulfonamide]",16
4,"O=C1Nc2ccc(-c3cc[nH]n3)cc2C(CNS(=O)(=O)c2ccc(F)cc2)(C(F)(F)F)O1 (single isomer, unassigned) [Example 150, 4-fluoro-N-{[(4S*)-2-oxo-6-(1H-pyrazol-3-yl)-4-(trifluoromethyl)-1,4-dihydro-2H-3,1-benzoxazin-4-yl]methyl}benzenesulfonamide]",17
5,"O=C1Nc2ccc(Cl)cc2C(CNC(=O)c2ccc(F)cc2)(C(F)(F)F)N1 (single isomer, unassigned) [Example 187, N-{[(4S*)-6-chloro-2-oxo-4-(trifluoromethyl)-1,2,3,4-tetrahydroquinazolin-4-yl]methyl}4-fluorobenzamide]",45
6,"O=C1Nc2ccc(Cl)cc2C(CCCNS(=O)(=O)c2ccccn2)(C(F)(F)F)O1 (single isomer, unassigned) [Example 119, N-{3-[(4R*)-6-chloro-2-oxo-4-(trifluoromethyl)-1,4-dihydro-2H-3,1-benzoxazin-4-yl]propyl}pyridine-2-sulfonamide]",128
7,"O=C1Nc2ccc(Cl)cc2C(CCNC(=O)c2ccc(F)cc2)(C(F)(F)F)O1 (single isomer, unassigned) [Example 32, N-{2-[(4R*)-6-chloro-2-oxo-4-(trifluoromethyl)-1,4-dihydro-2H-3,1-benzoxazin-4-yl]ethyl}-4-fluorobenzamide]",22
8,"O=C1Nc2ccc(-c3ccco3)cc2C(CNC(=O)c2ccc(F)cc2)(C(F)(F)F)O1 (stereo not shown) [Example 146, 4-fluoro-N-{[6-(2-furyl)-2-oxo-4-(trifluoromethyl)-1,4-dihydro-2H-3,1-benzoxazin-4-yl]methyl}benzamide]",14

# These reach a lower IC50. Values come first.
row,IC50 [nM],Structure (SMILES)
1,13,"O=C1Nc2ccc(-c3cccs3)cc2C(CNC(=O)c2ccc(F)cc2)(C(F)(F)F)O1 (stereo not shown) [Example 147, 4-fluoro-N-{[2-oxo-6-(2-thienyl)-4-(trifluoromethyl)-1,4-dihydro-2H-3,1-benzoxazin-4-yl]methyl}benzamide]"
2,7.3,"Cc1ccn(-c2ccc3c(c2)C(CNC(=O)c2ccc(F)cc2)(C(F)(F)F)OC(=O)N3)n1 (stereo not shown) [Example 178, 4-fluoro-N-{[6-(3-methyl-1H-pyrazol-1-yl)-2-oxo-4-(trifluoromethyl)-1,4-dihydro-2H-3,1-benzoxazin-4-yl]methyl}benzamide]"
3,6.6,"O=C1Nc2ccc(-c3ccn[nH]3)cc2C(CNC(=O)c2ccc(F)cc2)(C(F)(F)F)N1 (single isomer, unassigned) [Example 182, 4-fluoro-N-{[(4S*)-2-oxo-6-(1H-pyrazol-5-yl)-4-(trifluoromethyl)-1,2,3,4-tetrahydroquinazolin-4-yl]methyl}benzamide]"
4,5.4,"O=C1Nc2ccc(Cl)cc2C(CCNS(=O)(=O)c2ccccn2)(C(F)(F)F)O1 (single isomer, unassigned) [Example 120, N-{2-[(4R*)-6-chloro-2-oxo-4-(trifluoromethyl)-1,4-dihydro-2H-3,1-benzoxazin-4-yl]ethyl}pyridine-2-sulfonamide]"
5,5.3,"CN1CCN(c2ccc3c(c2)C(CNC(=O)c2ccc(F)cc2)(C(F)(F)F)OC(=O)N3)C1=O (stereo not shown) [Example 174, 4-fluoro-N-{[6-(3-methyl-2-oxazolidin-1-yl)-2-oxo-4-(trifluoromethyl)-1,4-dihydro-2H-3,1-benzoxazin-4-yl]methyl}benzamide]"
